According to patent EP2193713A1, “Method for fighting animal pests without damaging pollinating insects” (Bayer CropScience AG, priority 2008, dated 2010):
Like-named read-outs stand apart in the source and are kept apart here.

Assays:
Type in all cases: in vivo
Apis mellifera [1] = conditions: 150 g a.s./ha
Source text: (§1) Der Test wurde gemäß EPPO (European Plant Protection Organisation) Leitlinie 170 wie folgt durchgeführt:
Die Mortalität von Arbeiterbienen vor dem Bienenstock wird mittels einer Falle für tote Bienen (dead bee trap) bestimmt. Die Falle besteht aus Maschendraht und ist vor dem Bienenstock angebracht. Einzelne, lebende Bienen können die Maschen des Drahts passieren, der Transport toter Bienen durch die Maschen ist nicht möglich, weswegen tote Bienen sich in der Falle ansammeln. Tabelle 1 (siehe auch Figur 1)

Apis mellifera [2] = assay: Tunnel test / spray application / bees: acute mortality of pupae in front of the hive; conditions: for Zahl toter Puppen: 150 g a.s./ha
Source text: as §1
Tabelle 2 (siehe auch Figur 2)

Apis mellifera [3] = assay: Tunnel test / spray application / bees: foraging activity; conditions: 150 g a.s./ha
Source text: as §1
Während einer Minute werden in einem abgegrenzten Bereich von 2 x 1 m^2 die Bienen gezählt, die auf Blüten absitzen. Tabelle 3 (siehe auch Figur 3)

Apis mellifera [4] = assay: Tunnel test / spray application / bees: brood development (share of comb cells); conditions: 150 g a.s./ha
Source text: as §1
Über alle Waben eines Bienenstocks wird der jeweilige Anteil an Zellen bestimmt, der durch Pollen, Nektar, Eier, Larven oder Puppen belegt ist bzw. leer ist. […]

Apis mellifera [5] = assay: Greenhouse test / residue test / bees: mortality after contact with treated tomato leaves; conditions: 100 g a.s./ha
Source text: Der Versuch wurde wie folgt durchgeführt:
Die Tomatenpflanzen wurden im Gewächshaus mit den Testverbindungen bzw. der Referenzsubstanz behandelt (Spritzappliaktion, 3 fache Wiederholung). 1, 3, 6 und 13 Tage nach Behandlung (DAA) wurden Blätter entnommen (je 5 Blattproben pro Behandlung) und in Boxen gegeben. In jede Box wurden 10 Bienen transferiert und die Boxen wurden unter kontrollierten Bedingungen aufbewahrt, wobei die Bienen mit Zuckerlösung gefüttert wurden. 24, 48 und 72 nach Transfer der Bienen wurde deren Mortalität bestimmt. Tabelle 9 (siehe auch Figur 9)

[6] = leaves taken 1 Tag nach Behandlung, 24 h contact
[7] = leaves taken 1 Tag nach Behandlung, 48 h contact
[8] = leaves taken 1 Tag nach Behandlung, 72 h contact
[9] = leaves taken 3 Tage nach Behandlung, 24 h contact
[10] = leaves taken 3 Tage nach Behandlung, 48 h contact
[11] = leaves taken 3 Tage nach Behandlung, 72 h contact
[12] = leaves taken 6 Tage nach Behandlung, 24 h contact
[13] = leaves taken 6 Tage nach Behandlung, 48 h contact
[14] = leaves taken 6 Tage nach Behandlung, 72 h contact
[15] = leaves taken 13 Tage nach Behandlung, 24 h contact
[16] = leaves taken 13 Tage nach Behandlung, 48 h contact
[17] = leaves taken 13 Tage nach Behandlung, 72 h contact

SMILES: CCOC(=O)NCCOc1ccc(Oc2ccccc2)cc1 [Fenoxycarb, reference compound]
- Zahl toter Arbeiterbienen (Apis mellifera [1]; 0 DAA b (15:15 Uhr)): 0
- Zahl toter Arbeiterbienen (Apis mellifera [1]; 0 DAA c (17:15 Uhr)): 0
- Zahl toter Arbeiterbienen (Apis mellifera [1]; 1 DAA): 1,3
- Zahl toter Arbeiterbienen (Apis mellifera [1]; 2 DAA): 0,7
- Zahl toter Arbeiterbienen (Apis mellifera [1]; 3 DAA): 0
- Zahl toter Arbeiterbienen (Apis mellifera [1]; 4 DAA): 2
- Zahl toter Arbeiterbienen (Apis mellifera [1]; 5 DAA): 1,3
- Zahl toter Arbeiterbienen (Apis mellifera [1]; 6 DAA): 3
- Zahl toter Arbeiterbienen (Apis mellifera [1]; 11 DAA): 1
- Zahl toter Arbeiterbienen (Apis mellifera [1]; -3 DAA (before application)): 1
- Zahl toter Puppen (Apis mellifera [2]; 0 DAA c (17:15 Uhr)): 0
- Zahl toter Puppen (Apis mellifera [2]; 1 DAA): 0
- Zahl toter Puppen (Apis mellifera [2]; 2 DAA): 0
- Zahl toter Puppen (Apis mellifera [2]; 5 DAA): 0
- Zahl toter Puppen (Apis mellifera [2]; 6 DAA): 0
- Zahl toter Puppen (Apis mellifera [2]; 11 DAA): 9
- Zahl toter Puppen (Apis mellifera [2]; 14 DAA): 16,7
- Zahl toter Puppen (Apis mellifera [2]; 18 DAA): 26,7
- Zahl toter Puppen (Apis mellifera [2]; 21 DAA): 0
- Zahl toter Puppen (Apis mellifera [2]; 25 DAA): 1
- Zahl toter Puppen (Apis mellifera [2]; -3 DAA (before application)): 0
- Mortalität von Puppen vor dem Bienenstock (Apis mellifera [2]; result in words, tunnel test, spray, I-5 75 und 150 g a.s./ha, Fenoxycarb 150 g a.s./ha): 11-18 Tage nach Applikation eine Mortalität von Puppen
- Aktivität der Nahrungssuche, Zahl der Bienen / min / m^2 (Apis mellifera [3]; 0 DAA a (09:30 Uhr)): 26,2 Bienen / min / m^2
- Aktivität der Nahrungssuche, Zahl der Bienen / min / m^2 (Apis mellifera [3]; 0 DAA c (14:15 Uhr)): 38,7 Bienen / min / m^2
- Aktivität der Nahrungssuche, Zahl der Bienen / min / m^2 (Apis mellifera [3]; 0 DAA e (17:15 Uhr)): 46 Bienen / min / m^2
- Aktivität der Nahrungssuche, Zahl der Bienen / min / m^2 (Apis mellifera [3]; 1 DAA b (15:30 Uhr)): 19 Bienen / min / m^2
- Aktivität der Nahrungssuche, Zahl der Bienen / min / m^2 (Apis mellifera [3]; 2 DAA): 32,3 Bienen / min / m^2
- Aktivität der Nahrungssuche, Zahl der Bienen / min / m^2 (Apis mellifera [3]; 3 DAA): 38,7 Bienen / min / m^2
- Aktivität der Nahrungssuche, Zahl der Bienen / min / m^2 (Apis mellifera [3]; 6 DAA): 38,8 Bienen / min / m^2
- Aktivität der Nahrungssuche, Zahl der Bienen / min / m^2 (Apis mellifera [3]; -1 DAA (before application)): 27,3 Bienen / min / m^2
- Aktivität der Nahrungssuche, Zahl der Bienen / min / m^2 (Apis mellifera [3]; -2 DAA (before application)): 33,7 Bienen / min / m^2
- Aktivität der Nahrungssuche, Zahl der Bienen / min / m^2 (Apis mellifera [3]; -3 DAA (before application)): 25 Bienen / min / m^2
- Anteil an Zellen: Eier (Apis mellifera [4]; 1 Tag vor Applikation): 12,5%
- Anteil an Zellen: Larven (Apis mellifera [4]; 1 Tag vor Applikation): 14,2%
- Anteil an Zellen: Leer (Apis mellifera [4]; 1 Tag vor Applikation): 25,8%
- Anteil an Zellen: Nektar (Apis mellifera [4]; 1 Tag vor Applikation): 13,3%
- Anteil an Zellen: Pollen (Apis mellifera [4]; 1 Tag vor Applikation): 2,2%
- Anteil an Zellen: Puppen (Apis mellifera [4]; 1 Tag vor Applikation): 31,9%
- Anteil an Zellen: Eier (Apis mellifera [4]; 6 Tage nach Applikation): 12,2%
- Anteil an Zellen: Larven (Apis mellifera [4]; 6 Tage nach Applikation): 0,3%
- Anteil an Zellen: Leer (Apis mellifera [4]; 6 Tage nach Applikation): 29,7%
- Anteil an Zellen: Nektar (Apis mellifera [4]; 6 Tage nach Applikation): 20,8%
- Anteil an Zellen: Pollen (Apis mellifera [4]; 6 Tage nach Applikation): 6,7%
- Anteil an Zellen: Puppen (Apis mellifera [4]; 6 Tage nach Applikation): 30,3%
- Anteil an Zellen: Eier (Apis mellifera [4]; 14 Tage nach Applikation): 18,3%
- Anteil an Zellen: Larven (Apis mellifera [4]; 14 Tage nach Applikation): 10,6%
- Anteil an Zellen: Leer (Apis mellifera [4]; 14 Tage nach Applikation): 52,2%
- Anteil an Zellen: Nektar (Apis mellifera [4]; 14 Tage nach Applikation): 9,2%
- Anteil an Zellen: Pollen (Apis mellifera [4]; 14 Tage nach Applikation): 5,3%
- Anteil an Zellen: Puppen (Apis mellifera [4]; 14 Tage nach Applikation): 4,4%
- Anteil an Zellen: Eier (Apis mellifera [4]; 27 Tage nach Applikation): 18,6%
- Anteil an Zellen: Larven (Apis mellifera [4]; 27 Tage nach Applikation): 7,2%
- Anteil an Zellen: Leer (Apis mellifera [4]; 27 Tage nach Applikation): 23,1%
- Anteil an Zellen: Nektar (Apis mellifera [4]; 27 Tage nach Applikation): 21,9%
- Anteil an Zellen: Pollen (Apis mellifera [4]; 27 Tage nach Applikation): 4,7%
- Anteil an Zellen: Puppen (Apis mellifera [4]; 27 Tage nach Applikation): 24,4%
- Zahl der Larven (Apis mellifera [4]; result in words, 6 Tage nach Applikation): starke Abnahme
- Zahl der Puppen (Apis mellifera [4]; result in words, 14 Tage nach Applikation): starke Abnahme

SMILES: O=C1C=C(N(Cc2ccc(Cl)nc2)C2CC2)CO1 [I-9, 4-{[(6-Chlorpyrid-3-yl)methyl](cyclopropyl)amino}furan-2(5H)-on]
- Mortalität (Apis mellifera [5]; [6]): 6%
- Mortalität (Apis mellifera [5]; [7]): 9%
- Mortalität (Apis mellifera [5]; [8]): 13%
- Mortalität (Apis mellifera [5]; [9]): 2%
- Mortalität (Apis mellifera [5]; [10]): 3%
- Mortalität (Apis mellifera [5]; [11]): 4%
- Mortalität (Apis mellifera [5]; [12]): 1%
- Mortalität (Apis mellifera [5]; [13]): 2%
- Mortalität (Apis mellifera [5]; [14]): 5%
- Mortalität (Apis mellifera [5]; [15]): 8,7%
- Mortalität (Apis mellifera [5]; [16]): 11%
- Mortalität (Apis mellifera [5]; [17]): 12%

SMILES: CN(Cc1ccc(Cl)nc1)C1=CC(=O)OC1 [I-10, 4-{[(6-Chlorpyrid-3-yl)methyl](methyl)amino}furan-2(5H)-on]
- Mortalität (Apis mellifera [5]; [6]): 5%
- Mortalität (Apis mellifera [5]; [7]): 5%
- Mortalität (Apis mellifera [5]; [8]): 6%
- Mortalität (Apis mellifera [5]; [9]): 3%
- Mortalität (Apis mellifera [5]; [10]): 7%
- Mortalität (Apis mellifera [5]; [11]): 8%
- Mortalität (Apis mellifera [5]; [12]): 3%
- Mortalität (Apis mellifera [5]; [13]): 4%
- Mortalität (Apis mellifera [5]; [14]): 7%
- Mortalität (Apis mellifera [5]; [15]): 6,7%
- Mortalität (Apis mellifera [5]; [16]): 6,7%
- Mortalität (Apis mellifera [5]; [17]): 6,7%
